Measurements: ChEMBL document CHEMBL5030535, “Conjugates Derived from Lapatinib Derivatives with Cancer Cell Stemness Inhibitors Effectively Reversed Drug Resistance in Triple-Negative Breast Cancer” (J Med Chem, 2021)
The source made the active and inactive calls. No cut-off for these calls is given here.

How the values were obtained:
MDA-MB-231 [1] = test: Inhibition of Wnt/beta-Catenin signaling in drug-tolerant human MDA-MB-231/lapatinib cells assessed as reduction in S100A4 mRNA level at 20 uM incubated for 24 hrs by qRT-PCR analysis
MDA-MB-231 [2] = test: Antiproliferative activity against drug-tolerant human MDA-MB-231/lapatinib cells assessed as CD44-positive cells measured after 24 hrs by MTT assay; assay type: functional, cell-based; details: MDA-MB-231, 24 h
[3] = Resistant factor, ratio of IC50 for antiproliferative activity against drug-tolerant human MDA-MB-231 cells to IC50 for human MDA-MB-231 cells; assay type: functional
MDA-MB-231 [4] = test: Inhibition of cell stemness in human drug-tolerant MDA-MB-231/lapatinib cells assessed as inhibition of CD44+/CD24- expression at 20 uM after 24 hrs by flow cytometry analysis; assay type: functional
MDA-MB-231 [5] = test: Cell cycle arrest in human MDA-MB-231 cells assessed as accumulation at G0-G1phase at 20 uM incubated for 24 hrs by PI staining based flow cytometry; assay type: functional
[6] = Octanol/water partition coefficient, log P of the compound by shake flask method based thermodynamic solubility assay; assay type: physicochemical
MDA-MB-231 [7] = test: Induction apoptosis in MDA-MB-231/ lapatinib cells assessed as apoptotic cells at 20 uM measured after 24 hrs by propidium iodide staining based flow cytometric analysis; assay type: functional, cell-based; details: Homo sapiens
[8] = target: T1, Epidermal growth factor receptor (Homo sapiens, UniProt P00533); test: Inhibition of human EGFR phosphorylation in human drug-tolerant MDA-MB-231/lapatinib cells measured after 24 hrs by Western blot analysis; details: dose 5-20 µM
MDA-MB-231 [9] = test: Induction of apoptosis in drug-tolerant human MDA-MB-231 cells/lapatinib cells assessed as apoptotic rate at 20 uM measured after 24 hrs by flow cytometry; assay type: functional
[10] = target: T1, Epidermal growth factor receptor; test: Inhibition of human EGFR in human drug-tolerant MDA-MB-231/lapatinib cells assessed as inhibition of phosphorylation Akt1/2/3 at Ser473 of measured after 24 hrs by Western blot analysis; details: dose 5-20 µM
MDA-MB-231 [11] = test: Antiproliferative activity against drug-tolerant human MDA-MB-231/lapatinib cells assessed as CD44+/CD24- cells measured at 20 uM after 24 hrs by MTT assay; assay type: functional
MDA-MB-231 [12] = test: Inhibition of Wnt/beta-Catenin signaling in drug-tolerant human MDA-MB-231/lapatinib cells assessed as increase in nuclear expression of p-beta-catenin level at 20 uM incubated for 24 hrs by Western blot analysis
HUVEC = test: Antiproliferative activity against human HUVEC cells assessed as inhibition of cell growth in measured after 72 hrs by MTT assay; assay type: cell-based
[13] = target: T1, Epidermal growth factor receptor; test: Inhibition of human EGFR in human MDA-MB-231 cells assessed as inhibition of phosphorylation ERK1/2 at T202/Y204 of measured after 24 hrs by Western blot analysis; assay type: cell-based; details: dose 5-20 µM
MDA-MB-231 [14] = test: Cell cycle arrest in human drug-tolerant MDA-MB-231/lapatinib cells assessed as accumulation at G0-G1phase at 20 uM incubated for 24 hrs by PI staining based flow cytometry; assay type: functional
[15] = target: T1, Epidermal growth factor receptor; test: Inhibition of human EGFR phosphorylation in human MDA-MB-231 cells measured after 24 hrs by Western blot analysis; assay type: cell-based; details: dose 5-20 µM
[16] = target: T2, Aldehyde dehydrogenase 1A1 (Homo sapiens, UniProt P00352); test: Inhibition of ALDH1A1 in human drug-tolerant MDA-MB-231/lapatinib cells assessed as after 24 hrs
T2 sequence (P00352 whole entry): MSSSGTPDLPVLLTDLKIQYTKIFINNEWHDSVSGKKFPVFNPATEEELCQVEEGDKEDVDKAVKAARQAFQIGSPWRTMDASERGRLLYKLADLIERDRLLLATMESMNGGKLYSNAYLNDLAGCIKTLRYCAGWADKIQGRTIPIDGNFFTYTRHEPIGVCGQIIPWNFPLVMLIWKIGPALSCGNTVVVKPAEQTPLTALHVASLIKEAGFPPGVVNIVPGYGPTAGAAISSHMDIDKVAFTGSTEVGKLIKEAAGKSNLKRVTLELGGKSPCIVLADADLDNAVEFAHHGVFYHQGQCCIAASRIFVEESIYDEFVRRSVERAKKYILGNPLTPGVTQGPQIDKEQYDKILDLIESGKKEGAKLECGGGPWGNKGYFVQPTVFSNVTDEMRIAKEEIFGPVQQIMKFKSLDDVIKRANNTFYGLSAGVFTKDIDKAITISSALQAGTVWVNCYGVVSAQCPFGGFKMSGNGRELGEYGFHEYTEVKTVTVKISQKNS

MDA-MB-231 [17] = test: Inhibition of cell invasion in human MDA-MB-231/lapatinib cells at 20 uM; assay type: functional
MDA-MB-231 [18] = test: Inhibition of cell stemness in human drug-tolerant MDA-MB-231/lapatinib cells assessed as inhibition of Kif4 expression at 20 uM after 24 hrs by qRT-PCR analysis; assay type: functional, cell-based
MDA-MB-231 [19] = test: Inhibition of Wnt/beta-Catenin signaling in drug-tolerant human MDA-MB-231/lapatinib cells assessed as reduction in MMP7 mRNA level at 20 uM incubated for 24 hrs by qRT-PCR analysis; assay type: tissue-based
MDA-MB-231 [20] = test: Inhibition of Wnt/beta-Catenin signaling in drug-tolerant human MDA-MB-231/lapatinib cells assessed as reduction in beta-catenin level at 20 uM incubated for 24 hrs by Western blot analysis
MDA-MB-231 [21] = test: Inhibition of colony formation in human drug-tolerant MDA-MB-231/lapatinib cells at 5 uM measured after 24 hrs; assay type: functional
MCF7 = test: Antiproliferative activity against human MCF7 cells assessed as inhibition of cell growth measured after 72 hrs by MTT assay; assay type: functional, cell-based; details: MCF7, 72 h
MDA-MB-231 [22] = test: Antiproliferative activity against human drug tolerant MDA-MB-231/lapatinib cells assessed as inhibition of cell growth in measured after 72 hrs by MTT assay; assay type: functional, cell-based; details: MDA-MB-231, 72 h
MDA-MB-231 [23] = test: Inhibition of cell stemness in drug-tolerant human MDA-MB-231/lapatinib cells assessed as inhibition of ALDH1A1 expression at 20 uM after 24 hrs by flow cytometry; assay type: functional
MDA-MB-231 [24] = test: Inhibition of cell stemness in drug-tolerant human MDA-MB-231/lapatinib cells assessed as inhibition of Jagged expression at 20 uM after 24 hrs by flow cytometry; assay type: functional, cell-based
MDA-MB-231 [25] = test: Inhibition of Wnt/beta-Catenin signaling in drug-tolerant human MDA-MB-231/lapatinib cells assessed as reduction in cyclin D1 mRNA level at 20 uM incubated for 24 hrs by qRT-PCR analysis
MDA-MB-231 [26] = test: Inhibition of cell stemness in drug-tolerant human MDA-MB-231/lapatinib cells assessed as inhibition of Notch expression at 20 uM after 24 hrs by flow cytometry; assay type: functional, cell-based
MDA-MB-231 [27] = test: Inhibition of cell stemness in human drug-tolerant MDA-MB-231/lapatinib cells assessed as inhibition of OCT4 expression at 20 uM after 24 hrs by qRT-PCR analysis; assay type: functional, cell-based
[28] = target: T1, Epidermal growth factor receptor; test: Inhibition of human EGFR in human MDA-MB-231 cells assessed as inhibition of phosphorylation Akt1/2/3 at Ser473 of measured after 24 hrs by Western blot analysis; assay type: cell-based; details: dose 5-20 µM
MDA-MB-231 [29] = test: Antiproliferative activity against human MDA-MB-231 cells assessed as inhibition of cell growth measured after 72 hrs by MTT assay; assay type: functional, cell-based; details: MDA-MB-231, 72 h
MDA-MB-231 [30] = test: Inhibition of Wnt/beta-Catenin signaling in drug-tolerant human MDA-MB-231/lapatinib cells assessed as reduction in c-Myc mRNA level at 20 uM incubated for 24 hrs by qRT-PCR analysis
[31] = target: T1, Epidermal growth factor receptor; test: Inhibition of exogenous EGFR (unknown origin)
[32] = target: T1, Epidermal growth factor receptor; test: Inhibition of human EGFR in human drug-tolerant MDA-MB-231/lapatinib cells assessed as inhibition of phosphorylation ERK1/2 at T202/Y204 of measured after 24 hrs by Western blot analysis; details: dose 5-20 µM
MDA-MB-231 [33] = test: Inhibition of cell stemness in human drug-tolerant MDA-MB-231/lapatinib cells assessed as inhibition of SOX-2 expression at 20 uM after 24 hrs by qRT-PCR analysis; assay type: functional, cell-based
MDA-MB-231 [34] = test: Inhibition of Wnt/beta-Catenin signaling in drug-tolerant human MDA-MB-231/lapatinib cells assessed as reduction in p-GSK3beta level at 20 uM incubated for 24 hrs by Western blot analysis

T1 sequence (P00533 whole entry): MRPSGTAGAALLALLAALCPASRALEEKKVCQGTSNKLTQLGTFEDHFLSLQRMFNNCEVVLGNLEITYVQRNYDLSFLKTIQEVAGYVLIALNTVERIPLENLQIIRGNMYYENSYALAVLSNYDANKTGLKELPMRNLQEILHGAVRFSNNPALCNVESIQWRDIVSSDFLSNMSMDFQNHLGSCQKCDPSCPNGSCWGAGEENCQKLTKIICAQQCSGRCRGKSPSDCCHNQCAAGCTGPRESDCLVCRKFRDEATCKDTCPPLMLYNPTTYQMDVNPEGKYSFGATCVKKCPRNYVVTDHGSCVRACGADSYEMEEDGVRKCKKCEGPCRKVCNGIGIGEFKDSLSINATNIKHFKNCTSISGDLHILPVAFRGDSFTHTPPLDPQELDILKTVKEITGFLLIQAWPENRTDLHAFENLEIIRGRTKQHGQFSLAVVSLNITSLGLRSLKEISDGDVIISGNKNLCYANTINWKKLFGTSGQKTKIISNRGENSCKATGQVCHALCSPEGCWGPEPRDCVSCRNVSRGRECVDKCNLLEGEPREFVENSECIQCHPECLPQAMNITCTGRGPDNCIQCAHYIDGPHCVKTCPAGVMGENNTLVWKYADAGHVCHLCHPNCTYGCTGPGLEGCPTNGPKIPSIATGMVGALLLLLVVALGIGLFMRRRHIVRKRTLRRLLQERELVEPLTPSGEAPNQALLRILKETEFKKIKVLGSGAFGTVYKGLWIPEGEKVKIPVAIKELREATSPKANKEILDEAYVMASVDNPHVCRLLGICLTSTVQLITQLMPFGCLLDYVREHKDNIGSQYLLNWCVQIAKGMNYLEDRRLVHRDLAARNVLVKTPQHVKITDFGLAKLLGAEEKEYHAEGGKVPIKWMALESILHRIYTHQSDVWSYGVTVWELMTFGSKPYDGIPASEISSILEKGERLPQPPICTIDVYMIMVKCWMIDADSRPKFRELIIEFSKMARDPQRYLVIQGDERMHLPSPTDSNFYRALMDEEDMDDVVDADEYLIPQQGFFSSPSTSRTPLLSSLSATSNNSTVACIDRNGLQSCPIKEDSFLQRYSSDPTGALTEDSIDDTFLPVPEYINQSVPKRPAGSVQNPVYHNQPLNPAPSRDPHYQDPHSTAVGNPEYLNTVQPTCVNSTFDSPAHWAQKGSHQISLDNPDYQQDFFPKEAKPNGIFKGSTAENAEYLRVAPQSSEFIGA

Q: For CC(OC(=O)CCCC(=O)N(CCS(C)(=O)=O)Cc1ccc(-c2ccc3ncnc(Nc4ccc(OCc5cccc(F)c5)c(Cl)c4)c3c2)o1)c1cc2c(o1)C(=O)c1ccccc1C2=O (stereo unspecified), which inhibition (MDA-MB-231 [1]) is on record?
A: Active

Q: And the IC50 (MDA-MB-231 [2])?
A: 2030 nM

Q: What about the “Ratio IC50” value [3] of the same compound?
A: 0.82

Q: And the inhibition at 20 µM (MDA-MB-231 [4])?
A: 2.03%

Q: What about the Activity (MDA-MB-231 [5]) of the same compound?
A: Active

Q: And the logP [6]?
A: 2.15

Q: What about the Activity (MDA-MB-231 [7]) of the same compound?
A: Active

Q: What about the inhibition [8] of the same compound?
A: Dose-Dependent Effect

Q: And the Activity (MDA-MB-231 [9])?
A: Active

Q: And the inhibition [10]?
A: Dose-Dependent Effect

Q: And the inhibition at 20 µM (MDA-MB-231 [11])?
A: 52.2%

Q: What about the inhibition (MDA-MB-231 [12]) of the same compound?
A: Active

Q: What about the IC50 (HUVEC) of the same compound?
A: 63300 nM

Q: What about the inhibition [13] of the same compound?
A: Active

Q: What about the Activity (MDA-MB-231 [14]) of the same compound?
A: Active

Q: And the inhibition [15]?
A: Dose-Dependent Effect

Q: What about the IC50 [16] of the same compound?
A: 135 nM

Q: And the inhibition at 20 µM (MDA-MB-231 [17])?
A: 77.3%

Q: And the inhibition (MDA-MB-231 [18])?
A: Active

Q: And the inhibition (MDA-MB-231 [19])?
A: Active

Q: And the inhibition (MDA-MB-231 [20])?
A: Active

Q: What about the inhibition at 5 µM (MDA-MB-231 [21]) of the same compound?
A: 10.9%

Q: What about the IC50 (MCF7) of the same compound?
A: 3860 nM

Q: And the IC50 (MDA-MB-231 [22])?
A: 1690 nM

Q: And the inhibition at 20 µM (MDA-MB-231 [23])?
A: 71.2%

Q: What about the inhibition (MDA-MB-231 [24]) of the same compound?
A: Active

Q: And the inhibition (MDA-MB-231 [25])?
A: Active

Q: What about the inhibition (MDA-MB-231 [26]) of the same compound?
A: Active

Q: What about the inhibition (MDA-MB-231 [27]) of the same compound?
A: Active

Q: What about the inhibition [28] of the same compound?
A: Active

Q: And the IC50 (MDA-MB-231 [29])?
A: 2040 nM

Q: What about the inhibition (MDA-MB-231 [30]) of the same compound?
A: Active

Q: What about the IC50 [31] of the same compound?
A: 7.36 nM

Q: What about the inhibition [32] of the same compound?
A: Dose-Dependent Effect

Q: What about the inhibition (MDA-MB-231 [33]) of the same compound?
A: Active

Q: And the inhibition (MDA-MB-231 [34])?
A: Active
